Where a SMILES comes first, the peptide text is derived from it. Bridges are numbered along the chain shown (N, C = ends). Where no end group is shown, it is not given here.
Molecular target: T1, rat PAC1 receptor (Rattus norvegicus, UniProt P32215)
T1 construct: SHSY-5Y (human neuroblastoma cell line) and RG-2 (rat glioma cell line) cells endogenously express human and rat PAC1 receptors, respectively; endogenous in cells; host or cells: RG-2 rat glioma cells
T1 sequence (P32215 20-523): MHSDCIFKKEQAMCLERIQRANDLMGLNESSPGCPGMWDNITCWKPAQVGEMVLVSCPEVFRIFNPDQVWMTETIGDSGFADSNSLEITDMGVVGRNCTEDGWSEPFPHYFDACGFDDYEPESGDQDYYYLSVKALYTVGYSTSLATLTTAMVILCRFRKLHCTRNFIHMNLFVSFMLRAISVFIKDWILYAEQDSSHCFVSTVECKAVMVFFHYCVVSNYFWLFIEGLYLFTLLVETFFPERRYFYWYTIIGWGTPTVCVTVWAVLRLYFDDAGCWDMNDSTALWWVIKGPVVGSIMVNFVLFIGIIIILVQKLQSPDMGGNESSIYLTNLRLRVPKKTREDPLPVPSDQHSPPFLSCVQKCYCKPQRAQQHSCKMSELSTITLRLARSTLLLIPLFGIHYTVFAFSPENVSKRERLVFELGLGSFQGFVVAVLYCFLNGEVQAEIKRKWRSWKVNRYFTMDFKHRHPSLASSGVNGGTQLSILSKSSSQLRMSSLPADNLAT
Test: LANCE Ultra cAMP accumulation antagonist assay in RG-2 cells;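 further: RG-2 rat glioma cells endogenously expressing PAC1, test peptide preincubated 30 min, then PAC1 agonist added at its EC80 for 15 min, cAMP accumulation read by LANCE Ultra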
Format: cell-based

Compound: CC[C@H](C)[C@H](NC(=O)[C@H](C)NC(=O)[C@H](CCCCN)NC(=O)[C@H](CCCNC(=N)N)NC(=O)[C@H](Cc1ccccc1)NC(=O)[C@H](CCC(N)=O)NC(=O)[C@@H]1CSSC[C@H](N)C(=O)N[C@@H](CC(=O)O)C(=O)N[C@@H](C)C(=O)N[C@@H]([C@@H](C)O)C(=O)N1)C(=O)N[C@@H](CC(=O)O)C(=O)N[C@@H](CC(=O)O)C(=O)N[C@H]1CSSC[C@@H](C(=O)N[C@@H](CCSC)C(=O)N[C@@H](CCCCN)C(=O)N[C@@H](CCC(N)=O)C(=O)N[C@@H](CCCCN)C(=O)N[C@@H](CCCCN)C(=O)N[C@@H](CCCCN)C(=O)N[C@@H](CCC(=O)O)C(=O)N[C@@H](Cc2c[nH]c3ccccc23)C(=O)N[C@@H](CCCCN)C(=O)N[C@@H](C)C(=O)NCC(=O)N[C@@H](Cc2c[nH]cn2)C(=O)O)NC(=O)[C@H](C)NC(=O)[C@H](CCCCN)NC(=O)[C@H](Cc2ccccc2)NC(=O)[C@H](C)NC1=O [compound 444] (H-CDATCQFRKAIDDCAFKACMKQKKKEWKAGH-OH; disulfide 1-5, 14-19)
- IC50: 1 to 100 nM

Compound: CC[C@H](C)[C@H](NC(=O)[C@H](C)NC(=O)[C@H](CCCCN)NC(=O)[C@H](CCCNC(=N)N)NC(=O)[C@H](Cc1ccccc1)NC(=O)[C@H](CCC(N)=O)NC(=O)[C@@H]1CSSC[C@H](N)C(=O)N[C@@H](CC(=O)O)C(=O)N[C@@H](C)C(=O)N[C@@H]([C@@H](C)O)C(=O)N1)C(=O)N[C@@H](CC(=O)O)C(=O)N[C@@H](CC(=O)O)C(=O)N[C@H]1CSSC[C@@H](C(=O)N[C@@H](CCSC)C(=O)N[C@@H](CCCCN)C(=O)N[C@@H](CCC(N)=O)C(=O)N[C@@H](CCCCN)C(=O)N[C@@H](CCCCN)C(=O)N[C@@H](CCCCN)C(=O)N[C@@H](CCC(=O)O)C(=O)N[C@@H](Cc2c[nH]c3ccccc23)C(=O)N[C@@H](CCCCN)C(=O)N[C@@H](C)C(=O)N[C@@H](Cc2c[nH]cn2)C(=O)O)NC(=O)[C@H](C)NC(=O)[C@H](CCCCN)NC(=O)[C@H](Cc2ccccc2)NC(=O)[C@H](CO)NC(=O)[C@H](Cc2c[nH]cn2)NC(=O)[C@H](Cc2ccc(O)cc2)NC(=O)[C@H](C)NC(=O)[C@H](CCC(N)=O)NC(=O)[C@H](CCCNC(=N)N)NC(=O)[C@H](C)NC1=O [compound 451] (H-CDATCQFRKAIDDCARQAYHSFKACMKQKKKEWKAH-OH; disulfide 1-5, 14-25)
- IC50: 1 to 100 nM

Compound: CC[C@H](C)[C@H](NC(=O)[C@H](C)NC(=O)[C@H](CCCCN)NC(=O)[C@H](CCCNC(=N)N)NC(=O)[C@H](Cc1ccccc1)NC(=O)[C@H](CCC(N)=O)NC(=O)[C@@H]1CSSC[C@H](N)C(=O)N[C@@H](CC(=O)O)C(=O)N[C@@H](C)C(=O)N[C@@H]([C@@H](C)O)C(=O)N1)C(=O)N[C@@H](CC(=O)O)C(=O)N[C@@H](CC(=O)O)C(=O)N[C@H]1CSSC[C@@H](C(=O)N[C@@H](CC(C)C)C(=O)N[C@@H](CCCCN)C(=O)N[C@@H](CCC(N)=O)C(=O)N[C@@H](CCCCN)C(=O)N[C@@H](CCCCN)C(=O)N[C@@H](CCCCN)C(=O)N[C@@H](CCC(=O)O)C(=O)N[C@@H](Cc2c[nH]c3ccccc23)C(=O)N[C@@H](CCCCN)C(=O)N[C@@H](C)C(=O)NCC(N)=O)NC(=O)[C@H](C)NC(=O)[C@H](CCCCN)NC(=O)[C@H](Cc2ccccc2)NC(=O)[C@H](C(C)C)NC(=O)[C@H](CO)NC(=O)[C@H](CO)NC(=O)[C@H](Cc2c[nH]cn2)NC(=O)[C@H](Cc2ccc(O)cc2)NC(=O)[C@H](C)NC(=O)[C@H](CCC(N)=O)NC(=O)[C@H](CCCNC(=N)N)NC(=O)[C@H](C)NC1=O [compound 435] (H-CDATCQFRKAIDDCARQAYHSSVFKACLKQKKKEWKAG-NH2; disulfide 1-5, 14-27)
- IC50: 0.01 to 1 nM

Compound: CDATCQFRKAIDDCANKSWHSNVPGSVFKLCMKQKKKEWKAGH-NH2 (disulfide 1-5, 14-31) [compound 445]
- IC50: > 100 nM

Compound: CDATCQFRKAIDDCQKQAHHSNVPGSVFKACMKQKKKEFKAGK (disulfide 1-5, 14-31) [compound 182]
- IC50: 0.01 to 1 nM

Compound: GSCDATCQFRKAIDDCQKQAHHSNVPGSVFKACMKQKKKEFKAG-NH2 (disulfide 3-7, 16-33) [compound 185]
- IC50: 0.01 to 1 nM

Compound: CDATCQFRKAIDDCQKQAHHSNVPGSVFKACMKQKKKEFKAN (disulfide 1-5, 14-31) [compound 202]
- IC50: 0.01 to 1 nM

Compound: CDATCQFRKAIDDCQKQAHHSNVPGSVFKACMKQKKKEFKAGA (disulfide 1-5, 14-31) [compound 175]
- IC50: 0.01 to 1 nM

Compound: CC[C@H](C)[C@H](NC(=O)[C@H](C)NC(=O)[C@H](CCCCN)NC(=O)[C@H](CCCNC(=N)N)NC(=O)[C@H](Cc1ccccc1)NC(=O)[C@H](CCC(N)=O)NC(=O)[C@@H]1CSSC[C@H](N)C(=O)N[C@@H](CC(=O)O)C(=O)N[C@@H](C)C(=O)N[C@@H]([C@@H](C)O)C(=O)N1)C(=O)N[C@@H](CC(=O)O)C(=O)N[C@@H](CC(=O)O)C(=O)N[C@H]1CSSC[C@@H](C(=O)N[C@@H](CCSC)C(=O)N[C@@H](CCCCN)C(=O)N[C@@H](CCC(N)=O)C(=O)N[C@@H](CCCCN)C(=O)N[C@@H](CCCCN)C(=O)N[C@@H](CCCCN)C(=O)N[C@@H](CCC(=O)O)C(=O)N[C@@H](Cc2c[nH]c3ccccc23)C(=O)N[C@@H](CCCCN)C(=O)N[C@@H](C)C(=O)NCC(=O)N[C@@H](Cc2c[nH]cn2)C(=O)O)NC(=O)[C@H](C)NC(=O)[C@H](CCCCN)NC(=O)[C@H](Cc2ccccc2)NC(=O)[C@H](CO)NC(=O)[C@H](Cc2c[nH]cn2)NC(=O)[C@H](Cc2ccc(O)cc2)NC(=O)[C@H](C)NC(=O)[C@H](CCC(N)=O)NC(=O)[C@H](CCCNC(=N)N)NC(=O)[C@H](C)NC1=O [compound 439] (H-CDATCQFRKAIDDCARQAYHSFKACMKQKKKEWKAGH-OH; disulfide 1-5, 14-25)
- IC50: 0.01 to 1 nM

Compound: CC[C@H](C)[C@H](NC(=O)[C@H](C)NC(=O)[C@H](CCCCN)NC(=O)[C@H](CCCNC(=N)N)NC(=O)[C@H](Cc1ccccc1)NC(=O)[C@H](CCC(N)=O)NC(=O)[C@@H]1CSSC[C@H](N)C(=O)N[C@@H](CC(=O)O)C(=O)N[C@@H](C)C(=O)N[C@@H]([C@@H](C)O)C(=O)N1)C(=O)N[C@@H](CC(=O)O)C(=O)N[C@@H](CC(=O)O)C(=O)N[C@H]1CSSC[C@@H](C(=O)N[C@@H](CCSC)C(=O)N[C@@H](CCCCN)C(=O)N[C@@H](CCC(N)=O)C(=O)N[C@@H](CCCCN)C(=O)N[C@@H](CCCCN)C(=O)N[C@@H](CCCCN)C(=O)N[C@@H](CCC(=O)O)C(=O)N[C@@H](Cc2c[nH]c3ccccc23)C(=O)N[C@@H](CCCCN)C(=O)N[C@@H](C)C(=O)NCC(=O)N[C@@H](Cc2c[nH]cn2)C(=O)O)NC(=O)[C@H](C)NC(=O)[C@H](CO)NC(=O)[C@H](Cc2c[nH]cn2)NC(=O)[C@H](Cc2ccc(O)cc2)NC(=O)[C@H](C)NC(=O)[C@H](CCC(N)=O)NC(=O)[C@H](CCCNC(=N)N)NC(=O)[C@H](C)NC1=O [compound 449] (H-CDATCQFRKAIDDCARQAYHSACMKQKKKEWKAGH-OH; disulfide 1-5, 14-23)
- IC50: 1 to 100 nM

Compound: CC[C@H](C)[C@H](NC(=O)[C@H](C)NC(=O)[C@H](CCCCN)NC(=O)[C@H](CCCNC(=N)N)NC(=O)[C@H](Cc1ccccc1)NC(=O)[C@H](CCC(N)=O)NC(=O)[C@@H]1CSSC[C@H](N)C(=O)N[C@@H](CC(=O)O)C(=O)N[C@@H](C)C(=O)N[C@@H]([C@@H](C)O)C(=O)N1)C(=O)N[C@@H](CC(=O)O)C(=O)N[C@@H](CC(=O)O)C(=O)N[C@H]1CSSC[C@@H](C(=O)N[C@@H](CC(C)C)C(=O)N[C@@H](CCCCN)C(=O)N[C@@H](CCC(N)=O)C(=O)N[C@@H](CCCCN)C(=O)N[C@@H](CCCCN)C(=O)N[C@@H](CCCCN)C(=O)N[C@@H](CCC(=O)O)C(=O)N[C@@H](Cc2c[nH]c3ccccc23)C(=O)N[C@@H](CCCCN)C(=O)N[C@@H](C)C(=O)NCC(N)=O)NC(=O)[C@H](CO)NC(=O)[C@H](CCCCN)NC(=O)[C@H](Cc2ccccc2)NC(=O)[C@H](C(C)C)NC(=O)[C@H](CO)NC(=O)[C@H](CO)NC(=O)[C@H](Cc2c[nH]cn2)NC(=O)[C@H](Cc2ccc(O)cc2)NC(=O)[C@H](C)NC(=O)[C@H](CCC(N)=O)NC(=O)[C@H](CCCNC(=N)N)NC(=O)[C@H](C)NC1=O [compound 436] (H-CDATCQFRKAIDDCARQAYHSSVFKSCLKQKKKEWKAG-NH2; disulfide 1-5, 14-27)
- IC50: 0.01 to 1 nM

Compound: CC[C@H](C)[C@@H]1NC(=O)[C@@H](NC(=O)[C@H](CCCCN)NC(=O)[C@H](CCCNC(=N)N)NC(=O)[C@H](Cc2ccccc2)NC(=O)[C@H](CCC(N)=O)NC(=O)[C@H](CO)NC(=O)[C@@H](NC(=O)[C@H](C)NC(=O)[C@H](CC(=O)O)NC(=O)[C@@H](N)CO)[C@@H](C)O)CSSC[C@@H](C(=O)N[C@@H](CCCCN)C(=O)N[C@@H](CCC(N)=O)C(=O)N[C@@H](CCCCN)C(=O)N[C@@H](CCCCN)C(=O)N[C@@H](CCCCN)C(=O)N[C@@H](CCC(=O)O)C(=O)N[C@@H](Cc2c[nH]c3ccccc23)C(=O)N[C@@H](CCCCN)C(=O)N[C@@H](C)C(=O)NCC(=O)N[C@@H](Cc2c[nH]cn2)C(=O)O)NC(=O)[C@H](CO)NC(=O)[C@H](C)NC(=O)[C@H](CCCCN)NC(=O)[C@H](Cc2ccccc2)NC(=O)[C@H](C)NC(=O)CNC(=O)[C@H](CO)NC(=O)[C@H](CC(=O)O)NC(=O)[C@H](CC(=O)O)NC1=O [compound 441] (H-SDATSQFRKCIDDSGAFKASCKQKKKEWKAGH-OH; disulfide 10-21)
- IC50: 1 to 100 nM

— patent US20210395313A1, “PEPTIDE PAC1 ANTAGONISTS” (AMGEN INC., priority 2017, published 2021)
